Experimental data from patent publication US20260285850A1, “SUBSTITUTED OXAZOLIDINONES AND IMIDAZOLINONES AS HERBICIDES” (FMC CORPORATION, priority 2023, published 2026).

How the values were obtained:
Type in all cases: in vivo
[1] = system: barnyardgrass (Echinochloa crus-galli); assay: Test A preemergence soil spray, visual injury rating 0-100; settings: 10 days, 0 = no effect, 100 = complete control
Procedure, shortened: (§1)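 Grow plants in loam soil blended with sand. Apply formulated compound (non-phytotoxic solvent, surfactant) as a directed soil spray before emergence, or to plants at the one- to two-leaf stage after emergence. Hold in greenhouse 10 days, then rate injury visually versus untreated controls on a 0-100 scale.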

[2] = system: blackgrass (Alopecurus myosuroides); assay: as above; settings: 10 days, 0 = no effect, 100 = complete control
Procedure, shortened: as §1

corn (Zea mays) [3] = assay: as above; settings: 10 days, 0 = no effect, 100 = complete control
Procedure, shortened: as §1

[4] = system: green foxtail (Setaria viridis); assay: as above; settings: 10 days, 0 = no effect, 100 = complete control
Procedure, shortened: as §1

kochia (Bassia scoparia) [5] = assay: as above; settings: 10 days, 0 = no effect, 100 = complete control
Procedure, shortened: as §1

[6] = system: oat, wild (wild oat, Avena fatua); assay: as above; settings: 10 days, 0 = no effect, 100 = complete control
Procedure, shortened: as §1

[7] = system: palmer (palmer amaranth, palmer pigweed, Amaranthus palmeri); assay: as above; settings: 10 days, 0 = no effect, 100 = complete control
Procedure, shortened: as §1

[8] = system: ragweed (common ragweed, Ambrosia artemisiifolia); assay: as above; settings: 10 days, 0 = no effect, 100 = complete control
Procedure, shortened: as §1

soybean (Glycine max) [9] = assay: as above; settings: 10 days, 0 = no effect, 100 = complete control
Procedure, shortened: as §1

[10] = system: wheat (Triticum aestivum); assay: as above; settings: 10 days, 0 = no effect, 100 = complete control
Procedure, shortened: as §1

[11] = system: barnyardgrass (Echinochloa crus-galli); assay: Test A postemergence application, visual injury rating 0-100; settings: 10 days
Procedure, shortened: as §1

[12] = system: blackgrass (Alopecurus myosuroides); assay: as above; settings: 10 days
Procedure, shortened: as §1

corn (Zea mays) [13] = assay: as above; settings: 10 days
Procedure, shortened: as §1

[14] = system: galium (catchweed bedstraw, Galium aparine); assay: as above; settings: 10 days
Procedure, shortened: as §1

[15] = system: green foxtail (Setaria viridis); assay: as above; settings: 10 days
Procedure, shortened: as §1

[16] = system: horseweed (Erigeron canadensis); assay: as above; settings: 10 days
Procedure, shortened: as §1

kochia (Bassia scoparia) [17] = assay: as above; settings: 10 days
Procedure, shortened: as §1

[18] = system: oat, wild (wild oat, Avena fatua); assay: as above; settings: 10 days
Procedure, shortened: as §1

[19] = system: palmer (palmer amaranth, palmer pigweed, Amaranthus palmeri); assay: as above; settings: 10 days
Procedure, shortened: as §1

[20] = system: ragweed (common ragweed, Ambrosia artemisiifolia); assay: as above; settings: 10 days
Procedure, shortened: as §1

[21] = system: ryegrass, Italian (italian ryegrass, Lolium multiflorum); assay: as above; settings: 10 days
Procedure, shortened: as §1

soybean (Glycine max) [22] = assay: as above; settings: 10 days
Procedure, shortened: as §1

[23] = system: wheat (Triticum aestivum); assay: as above; settings: 10 days
Procedure, shortened: as §1

[24] = system: barnyardgrass (Echinochloa crusgalli); assay: Test B flooded paddy test, visual plant response rating 0-100; settings: 250 g ai/ha, Flood, applied to paddy water, evaluated after 13 days
Procedure, shortened: (§2)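 Visual scores versus untreated controls were recorded 13 days after treatment of greenhouse-held plants. At the 2-leaf stage, pots were flooded 3 cm above the soil surface and compounds added straight to the water.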

[25] = system: ducksalad (Heteranthera limosa); assay: as above; settings: 250 g ai/ha, Flood, applied to paddy water, evaluated after 13 days
Procedure, shortened: as §2

rice (Oryza sativa) = assay: as above; settings: 250 g ai/ha, Flood, applied to paddy water, evaluated after 13 days
Procedure, shortened: as §2

[26] = system: sedge, umbrella (small-flower umbrella sedge, Cyperus difformis); assay: as above; settings: 250 g ai/ha, Flood, applied to paddy water, evaluated after 13 days
Procedure, shortened: as §2

[27] = 31 g ai/ha, postemergence, 0 = no effect, 100 = complete control
[28] = Postemergence, 125 g ai/ha, 0 is no effect, 100 is complete control

## CC1(C(=O)NC2CCC(C(=O)O)C2)CN(c2cc(F)cc(Cl)c2)C(=O)O1 (centres unmarked) [Compound 7]
[1]; 31 g ai/ha
  Barnyardgrass plant response rating (0-100): 0
[1]; 125 g ai/ha
  Barnyardgrass plant response rating (0 to 100 scale): 90
[2]; 31 g ai/ha
  Blackgrass plant response rating (0-100): 20
[2]; 125 g ai/ha
  Blackgrass plant response rating (0 to 100 scale): 70
Corn (Zea mays) [3]; 31 g ai/ha
  Corn plant response rating (0-100): 0
Corn (Zea mays) [3]; 125 g ai/ha
  Corn plant response rating (0 to 100 scale): 80
[4]; 31 g ai/ha
  Foxtail, Green plant response rating (0-100): 20
[4]; 125 g ai/ha
  Foxtail, Green plant response rating (0 to 100 scale): 100
Kochia (Bassia scoparia) [5]; 31 g ai/ha
  Kochia plant response rating (0-100): 0
Kochia (Bassia scoparia) [5]; 125 g ai/ha
  Kochia plant response rating (0 to 100 scale): 80
[6]; 31 g ai/ha
  Oat, Wild plant response rating (0-100): 20
[6]; 125 g ai/ha
  Oat, Wild plant response rating (0 to 100 scale): 70
[7]; 31 g ai/ha
  Amaranth, Palmer plant response rating (0-100): 0
[7]; 125 g ai/ha
  Amaranth, Palmer plant response rating (0 to 100 scale): 90
[8]; 31 g ai/ha
  Ragweed plant response rating (0-100): 0
[8]; 125 g ai/ha
  Ragweed plant response rating (0 to 100 scale): 0
Soybean (Glycine max) [9]; 31 g ai/ha
  Soybean plant response rating (0-100): 20
Soybean (Glycine max) [9]; 125 g ai/ha
  Soybean plant response rating (0 to 100 scale): 60
[10]; 31 g ai/ha
  Wheat plant response rating (0-100): 90
[10]; 125 g ai/ha
  Wheat plant response rating (0 to 100 scale): 90
[11]; [27]
  Barnyardgrass plant response rating (0-100): 100
[11]; [28]
  Barnyardgrass plant response rating (0 to 100 scale): 100
[12]; [27]
  Blackgrass plant response rating (0-100): 60
[12]; [28]
  Blackgrass plant response rating (0 to 100 scale): 70
Corn (Zea mays) [13]; [27]
  Corn plant response rating (0-100): 90
Corn (Zea mays) [13]; [28]
  Corn plant response rating (0 to 100 scale): 100
[14]; [27]
  Galium plant response rating (0-100): 80
[14]; [28]
  Galium plant response rating (0 to 100 scale): 80
[15]; [27]
  Foxtail, Green plant response rating (0-100): 50
[15]; [28]
  Foxtail, Green plant response rating (0 to 100 scale): 90
[16]; [27]
  Horseweed plant response rating (0-100): 0
[16]; [28]
  Horseweed plant response rating (0 to 100 scale): 40
Kochia (Bassia scoparia) [17]; [27]
  Kochia plant response rating (0-100): 70
Kochia (Bassia scoparia) [17]; [28]
  Kochia plant response rating (0 to 100 scale): 80
[18]; [27]
  Oat, Wild plant response rating (0-100): 90
[18]; [28]
  Oat, Wild plant response rating (0 to 100 scale): 100
[19]; [27]
  Amaranth, Palmer plant response rating (0-100): 50
[19]; [28]
  Amaranth, Palmer / Pigweed, Palmer plant response rating (0 to 100 scale): 80
[20]; [27]
  Ragweed plant response rating (0-100): 0
[20]; [28]
  Ragweed plant response rating (0 to 100 scale): 20
[21]; [27]
  Ryegrass, Italian plant response rating (0-100): 80
[21]; [28]
  Ryegrass, Italian plant response rating (0 to 100 scale): 90
Soybean (Glycine max) [22]; [27]
  Soybean plant response rating (0-100): 50
Soybean (Glycine max) [22]; [28]
  Soybean plant response rating (0 to 100 scale): 60
[23]; [27]
  Wheat plant response rating (0-100): 90
[23]; [28]
  Wheat plant response rating (0 to 100 scale): 90
[24]
  Plant response rating, Barnyardgrass (0 to 100 scale, 0 is no effect and 100 is complete control): 60
[25]
  Plant response rating, Ducksalad (0 to 100 scale, 0 is no effect and 100 is complete control): 60
Rice (Oryza sativa)
  Plant response rating, Rice (0 to 100 scale, 0 is no effect and 100 is complete control): 25
[26]
  Plant response rating, Sedge, Umbrella (0 to 100 scale, 0 is no effect and 100 is complete control): 90
